What all share (format): cell-based
One assay concerns HIV-1NL4-3 wildtype. Put plainly: Luminescence Reduction Assay, luciferase reporter virus in MT4 cells. The settings on record: Human immunodeficiency virus 1, MT4, read-out: EC50 (μM) MT4 cells HIV-1NL4-3 wildtype 2% FBS. An excerpt:
(§1) For this assay, HIV-1NL4-3 reporter viruses are used which carry the luciferase164 gene (lu164) in place of the nef gene. The viruses are generated by transfection of 293T cells with the corresponding proviral pNL4-3 plasmid (Lipofectamine Reagent, Invitrogen, Karlsruhe, Germany). Starting from the proviral plasmid DNA, viruses with defined resistance mutations (single or combined) are produced in the reverse transcriptase gene using the “QuikChange II XL Site-Directed Mutagenesis Kit” (Stratagene, Cedar Creek, Tex., USA). Resistance mutations include, among others: L74V, A98G, A98S, L100I, K101E, K103N, V106A, V106I, V106M, V108I, V108A, E138K, V179I, V179D, V179E, Y181C, Y181I, Y188L, G190A, G1905, H221Y, P225H, F227C, F227L, F227V, M230I, M230L, L234I, P236L, N348I, T369A, T369I, T369V. MT4 cells infected with these reporter viruses (NIH AIDS Research and Reference Reagent Program) secrete luciferase into the medium, which enables the luminometric quantification of the virus replication.
(§2) For starting a 96-well MTP, 3 million MT4 cells are pelleted, suspended in 1 ml RPMI 1640 medium without phenol red (Invitrogen, Karlsruhe, Germany)/10% FBS/2 mM L-glutamine/1% Pen/Strep (Invitrogen, Karlsruhe, Germany), and incubated for 2 hours at 37° C. with a suitable quantity of the relevant HIV-1NL4-3 reporter virus (pellet infection). Non-adsorbed viruses are then washed out, and the infected cells are pelleted again and suspended in 8 ml RPMI 1640 medium without phenol red/2% or 10% FBS/2 mM L-glutamine/1% Pen/Strep. From this, 90 μl per well is pipetted into a white 96-well MTP to 10 μl of test substance at a suitable level of dilution. In order to avoid edge effects, the edge wells of the MTP are not used for substance dilutions. The second vertical row of the MTP contains only infected cells (virus control) and the eleventh vertical row only non-infected cells (cell control), each in RPMI 1640 medium without phenol red/2% or 10% FBS/2 mM L-glutamine/1% Pen/Strep. The remaining wells of the MTP contain the compounds in accordance with the invention in various concentrations, starting from the third vertical row, from which the test substances are diluted in 3-step sequences up to the tenth vertical row by a factor of 3^7. The test substances are dissolved in DMSO; the final DMSO concentration in the test formulation is 1%.

Another assay relates to HIV-1NL4-3 K103N-Y181C. Put plainly: Luminescence Reduction Assay, luciferase reporter virus with resistance mutations in MT4 cells. The conditions noted are these: Human immunodeficiency virus 1, MT4, read-out: EC50 (μM) MT4 cells HIV-1NL4-3 K103N-Y181C 2% FBS.
Text: as §1, §2
(A reporter such as luciferase makes a cellular process visible.)

In the next assay the test system is HIV-1LAI wildtype. Nature of the assay: alamarBlue Viability Assay with HIV-1LAI-infected MT4 cells. The conditions noted are these: Human immunodeficiency virus 1, 10% FBS. How it is done: For starting a 96-well MTP, 3 million PBLs are pelleted, suspended in 1 ml RPMI 1640 medium/10% FBS/2 mM L-glutamine/1% Pen/Strep and incubated for 2 hours at 37° C. with a suitable quantity of the relevant HIV-1LAI (NIH AIDS Research & Reference Reagent Program, Germantown, USA) (pellet infection). Non-adsorbed viruses are then washed out, and the infected cells pelleted again and suspended in 18 ml RPMI 1640 medium/10% FBS/2 mM L-glutamine/1% Pen/Strep/Interleukin-2 (40 U/ml). From this, 180 μl per well is pipetted into a 96-well MTP to 20 μl of test substance at a suitable level of dilution. Alternatively, the HIV is added after preparation of the substance dilutes in the MTP together with the cells, and is not washed out (supernatant infection). In order to avoid edge effects, the edge wells of the MTP are not used for substance dilutions. The second vertical row of the MTP contains only infected cells (virus control) and the eleventh vertical row only non-infected cells (cell control), each in RPMI 1640 medium/10% FBS/2 mM L-glutamine/1% Pen/Strep/Interleukin-2 (40 U/ml). The remaining wells of the MTP contain the compounds in accordance with the invention in various concentrations, starting from the third vertical row, from which the test substances are diluted in 3-step sequences up to the tenth vertical row by a factor of 3^7. The test substances are dissolved in DMSO; the final DMSO concentration in the test preparation is 1%. The test samples are incubated for 5 days at 37° C./5% CO2. After 5 to 7 days, 50 μl of cell-free supernatant is removed from each well to determine its p24 content using p24 ELISA (HIV-1 p24CA Antigen Capture Assay Kit, NCI-Frederick Cancer Research and Development Center, Frederick, USA). From the resulting values of the photometric analysis (450/620 nm), the EC50 values of the test substances are determined from the resulting dose-response curves using the Prism4 software (GraphPad, San Diego, Calif.) as the concentration of treated infected cells, where the p24 quantity is 50% of the untreated infected cells.
Alternatively, MT4 cells are used in place of PBLs for testing the test substances. HIV-1LAI-infected MT4 cells (MOI 0.01, supernatant infection) are incubated in accordance with the procedure described above in RPMI 1640 medium using 2% or 10% FKS/2 mM L-glutamine/1% Pen/Strep in the presence of the test substances for 5 days at 37° C./5% CO2 (10 μl diluted substance and 90 μl cells/virus per well). 10 μl alamarBlue (Invitrogen, Karlsruhe, Germany) is then added per well and the MTPs are incubated for 3 hours at 37° C. before fluorimetric evaluation is performed (544/590 nm). Using quattroWorkflow software (Quattroresearch, Martinsried, Germany), the EC50 values of the test substances are determined from the resulting dose-response curves as the concentration of treated infected cells in which the fluorescence is 50% of that of the untreated, non-infected cells.
In general terms: Alamar Blue is a resazurin reagent that responds to reducing activity.

As a reminder, the EC50 is the concentration that produces a half-maximal response. Turning to `O=C1NCc2c1ccnc2-c1cc(-c2cc(F)cc(Cl)c2)n(-c2ccc(F)c(Cl)c2)n1` [Example 1, 4-[1-(3-chloro-4-fluorophenyl)-5-(3-chloro-5-fluorophenyl)-1H-pyrazole-3-yl]-2,3-dihydro-1H-pyrrolo[3,4-c]pyridine-1-one], the EC50 in the assay with HIV-1NL4-3 wildtype was 0.0015 µM; in the assay on HIV-1NL4-3 K103N-Y181C it was 0.004 µM; in the assay on HIV-1LAI wildtype, 0.0097 µM.
For `O=C1NCc2c1ccnc2-c1cc(-c2cc(F)cc(Cl)c2)n(-c2cccnc2)n1` [Example 2, 4-[5-(3-chloro-5-fluorophenyl)-1-(pyridine-3-yl)-1H-pyrazole-3-yl]-2,3-dihydro-1H-pyrrolo[3,4-c]pyridine-1-one], in that order: 0.0013 µM, 0.0132 µM and 0.0063 µM.
The corresponding values for `O=C1NCc2c1cccc2-c1cc(-c2cc(F)cc(Cl)c2)n(-c2ccc(F)c(Cl)c2)n1` [Example 3, 4-[1-(3-chloro-4-fluorophenyl)-5-(3-chloro-5-fluorophenyl)-1H-pyrazole-3-yl]-2,3-dihydro-1H-isoindole-1-one] are 0.006 µM, 0.0289 µM and 0.0586 µM.
For `O=C1NCc2c1cccc2-c1cc(-c2cc(F)cc(Cl)c2)n(-c2cccnc2)n1` [Example 4, 4-[5-(3-chloro-5-fluorophenyl)-1-(pyridine-3-yl)-1H-pyrazole-3-yl]-2,3-dihydro-1H-isoindole-1-one], in that order: 0.0055 µM, 0.042 µM and 0.0155 µM.
Take `O=C1NCc2c1ccnc2-c1cc(-c2cc(F)cc(OC(F)(F)F)c2)n(-c2ccc(F)c(Cl)c2)n1` [Example 5, 4-{1-(3-chloro-4-fluorophenyl)-5-[3-fluoro-5-(trifluoromethoxy)phenyl]-1H-pyrazole-3-yl}-2,3-dihydro-1H-pyrrolo[3,4-c]pyridine-1-one]: the EC50 is 0.011 µM in the assay with HIV-1NL4-3 wildtype, 0.0117 µM in the assay on HIV-1NL4-3 K103N-Y181C and 0.15 µM in the assay with HIV-1LAI wildtype.
For `O=C1NCc2c1ccnc2-c1cc(-c2cc(F)cc(OC(F)(F)F)c2)n(-c2cccnc2)n1` [Example 6, 4-{5-[3-fluoro-5-(trifluoromethoxy)phenyl]-1-(pyridine-3-yl)-1H-pyrazole-3-yl}-2,3-dihydro-1H-pyrrolo[3,4-c]pyridine-1-one], in that order: 0.0024 µM, 0.0083 µM and 0.0137 µM.
As to `O=C1NCc2c1cccc2-c1cc(-c2cc(F)cc(OC(F)(F)F)c2)n(-c2cccnc2)n1` [Example 7, 4-{5-[3-fluoro-5-(trifluoromethoxy)phenyl]-1-(pyridine-3-yl)-1H-pyrazole-3-yl}-2,3-dihydro-1H-isoindole-1-one], the half-maximal effective concentration (EC50) was found to be 0.0107 µM in the assay with HIV-1NL4-3 wildtype, 0.0206 µM with HIV-1NL4-3 K103N-Y181C and 0.0512 µM in the assay with HIV-1LAI wildtype.
The corresponding values for `O=C1NC(=O)c2c1cccc2-c1cc(-c2cc(F)cc(OC(F)(F)F)c2)n(-c2cccnc2)n1` [Example 8, 4-{5-[3-fluoro-5-(trifluoromethoxy)phenyl]-1-(pyridine-3-yl)-1H-pyrazole-3-yl}-1H-isoindole-1,3(2H)-dione] are 0.643 µM, above 3.3 µM and above 3.3 µM.
The corresponding values for `O=C1NCc2c1ccnc2-c1cc(-c2cc(Cl)cc(OC(F)(F)F)c2)n(-c2ccc(F)c(Cl)c2)n1` [Example 9, 4-{1-(3-chloro-4-fluorophenyl)-5-[3-chloro-5-(trifluoromethoxy)phenyl]-1H-pyrazole-3-yl}-2,3-dihydro-1H-pyrrolo[3,4-c]pyridine-1-one] are 0.0128 µM, 0.0176 µM and 0.0768 µM.
For `O=C1NCc2c1ccnc2-c1cc(-c2cc(Cl)cc(OC(F)(F)F)c2)n(-c2cccnc2)n1` [Example 10, 4-{5-[3-chloro-5-(trifluoromethoxy)phenyl]-1-(pyridine-3-yl)-1H-pyrazole-3-yl}-2,3-dihydro-1H-pyrrolo[3,4-c]pyridine-1-one], in that order: 0.0012 µM, 0.0027 µM and 0.008 µM.
Regarding `O=C1NCc2c1cccc2-c1cc(-c2cc(Cl)cc(OC(F)(F)F)c2)n(-c2cccnc2)n1` [Example 11, 4-{5-[3-chloro-5-(trifluoromethoxy)phenyl]-1-(pyridine-3-yl)-1H-pyrazole-3-yl}-2,3-dihydro-1H-isoindole-1-one], the EC50 in the assay on HIV-1NL4-3 wildtype came to 0.0091 µM; in the assay on HIV-1NL4-3 K103N-Y181C, 0.024 µM; in the assay with HIV-1LAI wildtype it was 0.0663 µM.
For `O=C1NCc2c1ccnc2-c1cc(-c2cc(Br)cc(OC(F)(F)F)c2)n(-c2ccc(F)c(Cl)c2)n1` [Example 12, 4-{5-[3-bromo-5-(trifluoromethoxy)phenyl]-1-(3-chloro-4-fluorophenyl)-1H-pyrazole-3-yl}-2,3-dihydro-1H-pyrrolo[3,4-c]pyridine-1-one], in that order: 0.0089 µM, 0.012 µM and 0.0974 µM.
For `O=C1NCc2c1ccnc2-c1cc(-c2cc(Br)cc(OC(F)(F)F)c2)n(-c2cccnc2)n1` [Example 13, 4-{5-[3-bromo-5-(trifluoromethoxy)phenyl]-1-(pyridine-3-yl)-1H-pyrazole-3-yl}-2,3-dihydro-1H-pyrrolo[3,4-c]pyridine-1-one], in that order: 0.0011 µM, 0.0025 µM and 0.0086 µM.
On to `O=C1NCc2c1ccnc2-c1cc(-c2cc(F)cc(OC(F)F)c2)n(-c2cccnc2)n1` [Example 14, 4-{5-[3-(difluoromethoxy)-5-fluorophenyl]-1-(pyridine-3-yl)-1H-pyrazole-3-yl}-2,3-dihydro-1H-pyrrolo[3,4-c]pyridine-1-one], for which the figures for the EC50 in the assay with HIV-1NL4-3 wildtype, with HIV-1NL4-3 K103N-Y181C and in the assay on HIV-1LAI wildtype were 0.001 µM, 0.0097 µM and 0.0053 µM, respectively.
Take `O=C1NCc2c1ccnc2-c1cc(-c2cc(F)cc(OC(F)F)c2)n(-c2ccc(F)c(Cl)c2)n1` [Example 15, 4-{1-(3-chloro-4-fluorophenyl)-5-[3-(difluoromethoxy)-5-fluorophenyl]-1H-pyrazole-3-yl}-2,3-dihydro-1H-pyrrolo[3,4-c]pyridine-1-one]: the EC50 in the assay on HIV-1NL4-3 wildtype was found to be 0.0044 µM; in the assay with HIV-1NL4-3 K103N-Y181C, 0.0085 µM; with HIV-1LAI wildtype, 0.0171 µM.

For the origin of these results see patent US9249148B2, “Tris(hetero)arylpyrazoles and use thereof” (AICURIS GMBH & CO. KG, priority 2012, dated 2016).
